Measured values taken from patent US20200289527A1, “FORMULATION CONTAINING A-DECARBONIZED-5a ANDROSTANE COMPOUND FOR INCREASING WHITE BLOOD CELL AND USE THEREOF” (priority 2017, published 2020).
Like-named read-outs stand apart in the source and are kept apart here. Marks after values point to notes of the source that are not given here.

Assays:
[1] = system: white blood cells in mice bearing Lewis lung tumor
Excerpt: The vigorously growing tumor cells were taken and prepared into cell suspension with a concentration of about 5-10×10^6/ml by homogenization under sterile condition.
At the beginning of the experiment, 10 mice were randomly sampled for blood collection by posterior orbital venous plexus puncture, and an automatic blood cell analyzer (HEMAVET-950) was used to conduct the routine blood test. Then the blood was collected for the routine blood test by the same method on the 8th and 12th days after the last administration of cyclophosphamide.

[2] = system: white blood cells in tumor patients; conditions: for Effect of increasing WBC (C1/Czs): all 10 subjects, 15-45 mg total daily dose, Day 0 = 100%; for average extent of increasing white blood cells: average of subjects
Experimental: Blood was collected on the day before the administration, and the routine blood test was conducted to determine the number of white blood cells (Czs) before the subjects were treated with the medicine of the present invention.
10 subjects took ACP at different administrated frequency and dose every day (see Table 2). Blood was collected from 10 subjects at Day 8, 15, 22, and 28 for routine blood test.

[3] = chemotherapy control group, CTX 150/100 mg/kg ip, reference = 100%
[4] = subject GBYI, Day 0 count 4.3, once a day, total daily dose 15 mg
[5] = subject LXJV, Day 0 count 2.7, three times a day, total daily dose 30 mg

SMILES: O=P1(N(CCCl)CCCl)NCCCO1 (centres unmarked) [CTX, cyclophosphamide]
- effect on white blood cells of peripheral blood in mice ([1]; chemotherapy control group): caused a decrease of white blood cells of peripheral blood in mice
- Day 8 (10^3 WBC/μl) ([1]; chemotherapy control group, CTX 150/100 mg/kg ip, 8th day after last CTX): 0.41 ± 0.07 10^3 WBC/μl
- Day 12 (10^3 WBC/μl) ([1]; chemotherapy control group, CTX 150/100 mg/kg ip, 12th day after last CTX): 1.48 ± 0.37 10^3 WBC/μl
- Day 8 (%) [1, 3]: 100%
- Day 12 (%) [1, 3]: 100%

SMILES: C#C[C@@]1(OC(C)=O)C[C@@H]2CC[C@@H]3[C@H](CC[C@@]4(C)[C@H]3CC[C@]4(C#C)OC(C)=O)[C@@]2(C)C1 [ACP1, 2α,17α-diethynyl-A-decarbonized-5α-androstane-2β,17β-dihydroxyl diacetate compound]
- Day 8 (10^3 WBC/μl) ([1]; mouse, in vivo, 5 mg/kg): 4.21 ± 1.22 10^3 WBC/μl
- Day 8 (%) ([1]; mouse, in vivo, 5 mg/kg): 1027%*
- Day 12 (10^3 WBC/μl) ([1]; mouse, in vivo, 5 mg/kg): 4.32 ± 1.29 10^3 WBC/μl
- Day 12 (%) ([1]; mouse, in vivo, 5 mg/kg): 292%*
- Effect of increasing WBC (C1/Czs) ([2]; Day 8): 146%
- extent of increasing white blood cells (Cl/Czs-100%) ([2]; Day 8, compared with before treatment): about 50%
- Effect of increasing WBC (C1/Czs) ([2]; Day 15): 180%
- average extent of increasing white blood cells ([2]; Day 15): about 80%
- maximum extent of increasing white blood cells ([2]; Day 15, maximum among subjects): about 178%
- extent of increasing white blood cells ([2]; Day 22): about 63%
- Effect of increasing WBC (C1/Czs) ([2]; Day 22): 163%
- Effect of increasing WBC (C1/Czs) ([2]; Day 28): 149%
- average extent of increasing white blood cells ([2]; Day 28): about 50%
- WBC count during administration, Day 8 [2, 4]: 5.8 10^9/L
- WBC count during administration, Day 15 [2, 4]: 6.9 10^9/L
- WBC count during administration, Day 22 [2, 4]: 6.3 10^9/L
- WBC count during administration, Day 28 [2, 4]: 7.0 10^9/L
- WBC count during administration, Day 8 [2, 5]: 5.9 10^9/L
- WBC count during administration, Day 15 [2, 5]: 7.5 10^9/L
- WBC count during administration, Day 22 [2, 5]: 6.0 10^9/L
- WBC count during administration, Day 28 [2, 5]: 6.1 10^9/L
